# Biological target: T1, ACC (acetyl CoA carboxylase) purified from liver of male SD rat (Rattus norvegicus, UniProt P11497)
# T1 construct: applied to a monomeric avidin sepharose column, and washed with buffer B. The ACC was eluted with buffer B containing 2 mM d-biotin; from tissue; host or cells: liver of male SD rat
# Test: Measurement of ACC inhibition activity ([14C]-NaHCO3 incorporation)
# Assay type: biochemical
# Conditions: ACC inhibition activity rate at 1 μM; Table 2-III, Mode 3 acetylene/oxadiazole/thiazole compounds (numbers = x-III); read-out: ACC Inhibition (%)
# Experimental: A male SD rat was deprived of food for two days and then fed a high-sucrose diet (component) for two days. While anesthetized with ether, the descending vena cava was cut upon, the animal was bled, and the liver was rapidly recovered. In an ice-cooled buffer solution A (225 mM mannitol, 75 mM sucrose, 10 mM Tris-HCl (pH 7.5), 0.05 mM EDTA, 5 mM potassium citrate, 2.5 mM MgCl2, 10 mg/L pepstatin A, 10 mg/L leupeptin, 1 mM PMSF), the liver was homogenized with a polytone homogenizer. A quantity of buffer A nine times the weight of the liver was added, the mixture was centrifuged for 10 minutes at 1,000 g, the supernatant was recovered, and the supernatant was centrifuged for another 10 minutes at 17,000 g.
# Ammonium sulfate was added to 35 percent saturation to the obtained supernatant. The mixture was stirred for 45 minutes and then centrifuged for 10 minutes at 17,000 g. Buffer solution B (100 mM Tris-HCl (pH 7.5), 500 mM NaCl, 1 mM EDTA, 0.1 mM DTT, 10 percent glycerol, 10 mg/L pepstatin A, 10 mg/L leupeptin, 0.5 mM PMSF) was added to the obtained precipitate and dissolved. The solution was then centrifuged for 20 minutes at 40,000 g. The supernatant was dialyzed overnight against buffer C (100 mM Tris-HCl (pH 7.5), 500 mM NaCl, 1 mM EDTA, 0.1 mM DTT, 5 percent glycerol).
# The dialyzed supernatant was passed through a […], applied to a monomeric avidin sepharose column, and washed with buffer B. The ACC was eluted with buffer B containing 2 mM d-biotin.
# (2 Measurement of ACC Inhibition Activity)
# The compounds synthesized in the above-described embodiments were dissolved in DMSO and charged to glass vials. 250 μL of ACC-containing reaction solution (40 mM Tris-HCl (pH 7.5), 40 mM MgCl2, 40 mM sodium citrate, and 2 mM DTT) was added. The mixture was heated for 30 minutes at 37° C. in a thermostatic chamber and then cooled with ice. To reaction solution 1 was added 250 μL of reaction solution 2 containing [14C]—NaHCO3 (40 mM Tris-HCl (pH 7.5), 2 mM DTT, 8 mM ATP, 0.5 mM acetyl CoA) and the mixture was heated for 10 minutes at 37° C. 100 μL of 1N HCl was added to stop the reaction. Water in the reaction solution was removed with a centrifugal evaporator, a scintillator was added, the solid component was dissolved, and the 14C radioactivity was measured with a liquid scintillation counter. The ACC inhibition activity of each compound was calculated from the following equation and converted to the ACC inhibition activity rate (%) at 1 μM.
# ACC inhibition rate (%)=(1−(a−c)/(b−c))×100 a. Radioactivity when test drug added b: Radioactivity when test drug not added c: Blank* *Reaction solution 1 to which 100 μL of 1N HCl was added before mixing reaction solution 1 and reaction solution 2
row,inhibition at 1 µM [%],SMILES
1,64,O=C(O)CNC(=O)Nc1ccc(C#Cc2cccc(C(F)(F)F)c2)cc1 [compound 65]
2,73,O=C(Nc1ccc(C#Cc2cccc(C(F)(F)F)c2)cc1)NC(Cc1ccccc1)C(=O)O (centres unmarked) [compound 66]
3,62,O=C1c2cccc3cccc(c23)C(=O)N1c1cccc(C#Cc2cccc(C(F)(F)F)c2)c1 [compound 70]
4,66,O=C1C(c2ccccc2)=C(c2ccccc2)C(=O)N1c1cccc(C#Cc2cccc(C(F)(F)F)c2)c1 [compound 74]
5,64,O=[N+]([O-])c1ccccc1S(=O)(=O)Nc1ccc(-c2csc(-c3ccccc3)n2)cc1 [compound 77]
6,55,O=S(=O)(Nc1ccc(-c2csc(-c3ccccc3)n2)cc1)c1ccccc1NO [compound 78]
7,63,O=[N+]([O-])c1ccccc1S(=O)(=O)Nc1cccc(-c2csc(-c3ccccc3)n2)c1 [compound 82]
8,65,Nc1cccc(S(=O)(=O)Nc2ccc(-c3csc(-c4ccccc4)n3)cc2)c1 [compound 91]

# Same assay, conditions: ACC inhibition activity rate at 1 μM; Table 3-I, Mode 1 quinoline compounds (numbers = x-I); read-out: ACC Inhibition (%)
row,inhibition at 1 µM [%],SMILES
1,34,O=C(O)c1ccc(-c2ccc3nc(-c4cc(C(F)(F)F)cc(C(F)(F)F)c4)ccc3c2)o1 [compound 82]
2,98,CC(C)(C)c1ccc(C(=O)NS(=O)(=O)c2ccccc2NC(=O)c2ccc3nc(-c4cc(C(F)(F)F)cc(C(F)(F)F)c4)ccc3c2)cc1 [compound 83]
3,50,CCCCS(=O)(=O)NC(=O)CC(NC(=O)c1ccc2nc(-c3cc(C(F)(F)F)cc(C(F)(F)F)c3)ccc2c1)c1cccc2ccccc12 (centres unmarked) [compound 94]

# Same assay, conditions: ACC inhibition activity rate at 1 μM; Table 4-IV, Mode 4 benzenediamine compounds (numbers = x-IV); read-out: ACC Inhibition (%)
row,inhibition at 1 µM [%],SMILES
1,100,CC(C)CCN(C)c1ccc(-c2noc(-c3cccc(C(=O)NS(=O)(=O)c4ccccc4)c3)n2)cc1NC1C=CCCC1 (centres unmarked) [compound 59]
2,61,CC(C)CCN(C)c1ccc(-c2noc(-c3cccc(C(=O)NS(=O)(=O)c4ccccc4)c3)n2)cc1NCc1nccn1C [compound 60]
3,53,CN(C)CCNc1ccc(C(=O)Nc2cccc(C(=O)NS(=O)(=O)c3ccccc3)c2)cc1[N+](=O)[O-] [compound 62]
4,58,O=C(Nc1cccc(C(=O)NS(=O)(=O)c2ccccc2)c1)c1ccc(NCCN2CCCC2)c([N+](=O)[O-])c1 [compound 67]
5,56,Cc1ccccc1S(=O)(=O)NC(=O)CC(NC(=O)c1ccc(N(C)CCC(C)C)c(NCc2ccccc2)c1)C1CCCCC1 (centres unmarked) [compound 82]
6,92,Cc1ccccc1S(=O)(=O)NC(=O)CC(NC(=O)c1ccc(N(C)CCC(C)C)c(NCC2CCCCC2)c1)C1CCCCC1 (centres unmarked) [compound 83]
7,52,CC(C)CCN(C)c1ccc(C(=O)NC(CC(=O)NS(=O)(=O)c2ccccc2)C2CCCCC2)cc1NC(C)C (centres unmarked) [compound 84]
8,59,CC(C)CCN(C)c1ccc(C(=O)NC(CC(=O)NS(=O)(=O)c2ccccc2)C2CCCCC2)cc1NC1CCC1 (centres unmarked) [compound 85]
9,62,CC(C)CCN(C)c1ccc(C(=O)NC(CC(=O)NS(=O)(=O)c2ccccc2)C2CCCCC2)cc1NCc1ccco1 (centres unmarked) [compound 90]
10,70,CC(C)CCN(C)c1ccc(C(=O)NC(CC(=O)NS(=O)(=O)c2ccccc2)C2CCCCC2)cc1NCc1cccs1 (centres unmarked) [compound 91]
11,49,CC(C)CCN(C)c1ccc(C(=O)NC(CC(=O)NS(=O)(=O)c2ccccc2)C2CCCCC2)cc1NCc1nccs1 (centres unmarked) [compound 92]
12,84,CC(C)CCN(C)c1ccc(C(=O)NC(CC(=O)NS(=O)(=O)c2ccccc2)C2CCCCC2)cc1N(C)Cc1ccccc1 (centres unmarked) [compound 93]
13,96,CC(C)CCN(C)c1ccc(C(=O)NC(CC(=O)NS(=O)(=O)c2ccccc2)C2CCCCC2)cc1N(C)CC1CCCCC1 (centres unmarked) [compound 94]
14,100,CC(C)CCN(C)c1ccc(-c2noc(-c3cccc(C(=O)NS(=O)(=O)c4ccccc4)c3)n2)cc1NCc1ccc(O)cc1 [compound 95]
15,95,CC(C)CCN(C)c1ccc(-c2noc(-c3cccc(C(=O)NS(=O)(=O)c4ccccc4)c3)n2)cc1NCc1cccc(O)c1 [compound 96]

# From US7402696B2, “Benzene compounds” (Ajinomoto Co., Inc., priority 2004, dated 2008)
